Reference: US7696190B2, “16Alpha-methyl or ethyl substituted estrogens” (N.V. Organon, priority 2000, dated 2010)

Tested on: human estrogen receptor α (hERα) or β receptor (hERβ)
Test: in vitro transactivation bioassay (luciferase reporter) in recombinant CHO cells, estrogenic (agonist) activity compared with estradiol
Type: cell-based
Conditions: percentage agonist activity for ER α divided by percentage agonist activity for ER β; CHO cells co-transfected with hERα or hERβ, rat oxytocin promoter and luciferase reporter
Procedure: Compounds are tested for their estrogen receptor activity in a binding assay and in a transactivation assay. The estrogenic and antiestrogenic activity of compounds is determined in an in vitro bioassay with recombinant Chinese hamster ovary (CHO) cells stably co-transfected with the human estrogen receptor α (hERα) or β receptor (hERβ), the rat oxytocin promoter (RO) and the luciferase reporter gene (LUC). The estrogenic activity (potency ratio) of a test compound to stimulate the transactivation of the enzyme luciferase mediated via the estrogen receptors hERα or hERβ is compared with the standard estrogen estradiol. The antiestrogenic activity (potency ratio) of a test compound to inhibit the transactivation of the enzyme luciferase mediated via the estrogen receptors hERα or hERβ by the estrogen estradiol is compared with the standard ICI 164.384 (=(7α,17β)-N-butyl-3,17-dihydroxy-N-methylestra-1,3,5(10)-triene-7-undecanamide). A quantitative parameter for agonist selectivity is obtained by dividing the percentage agonist activity for ER α by the percentage agonist activity for ER β. Compound 11a has agonist selectivity for estrogen receptor α over estrogen receptor β of more than 86 times. Compound 26 has an agonist selectivity for ER α over ER β of 59 times. Compound 27 has agonist selectivity of 88.3 times.

C#CC1(O)C(C)CC2C3CCC4=C(CCC(O)C4)C3C(CC=C)CC21C (stereo not drawn) [Compound 27, (3α,11β,16α,17β)-16-methyl-11-(2-propenyl)-19-norpregn-5(10)-en-20-yne-3,17-diol]
agonist selectivity for estrogen receptor α over estrogen receptor β: 88.3 times
